Laboratory results from ChEMBL document CHEMBL5523687, “Pentafluorosulfanyl-substituted biaryl derivatives as MATE-type transporter inhibitors targeting drug-resistant bacteria” (Bioorg Med Chem, 2024).
In brackets after ≈: the same amount, converted by molar mass. Activity calls are given as the source filed them. The calls are words filed in the database; no cut-off is given here.

Tests used:
Escherichia coli [1] = test: Inhibition of MATE-type HmrM in norfloxacin-resistant Escherichia coli KAM32 assessed as norfloxacin antibacterial activity efficacy at 30 uM measured for 18 hrs incubation by CLSI based microplate reader analysis relative to norfloxacin alone
Escherichia coli [2] = test: Inhibition of MATE-type HmrM in norfloxacin-resistant Escherichia coli KAM32 assessed as norfloxacin antibacterial activity by measuring norfloxacin MIC measured for 18 hrs incubation by CLSI based microplate reader analysis
Escherichia coli [3] = test: Antibacterial activity against Norfloxacin sensitive Escherichia coli KAM32 harboring PBR322 assessed as reduction in bacterial growth measured for 18 hrs by CLSI based analysis; type: functional
Escherichia coli [4] = test: Antibacterial activity against Norfloxacin resistant Escherichia coli KAM32 harboring PBR322 hmrM assessed as reduction in bacterial growth measured for 18 hrs by CLSI based analysis; type: functional
Escherichia coli [5] = test: Antibacterial activity against Norfloxacin resistant Escherichia coli KAM32 harboring PBR322 assessed as inhibition of bacterial growth by measuring efficacy at 30 uM measured for 18 hrs by CLSI based analysis relative to control; type: functional
Escherichia coli [6] = test: Antibacterial activity against Norfloxacin sensitive Escherichia coli KAM32 harboring PBR322 assessed as inhibition of bacterial growth by measuring efficacy at 30 uM measured for 18 hrs by CLSI based analysis relative to control; type: functional
[7] = Inhibition of MATE-type HmrM (unknown origin); set-up: species or system Bacteria
Escherichia coli [8] = test: Antibacterial activity against Escherichia coli KAM32 harboring PBR322 hmrM assessed as effect on bacterial growth at 10 uM measured for 30 hrs by microplate reader analysis; type: functional, organism-based
Bacteria = test: Inhibition of MATE-type HmrM (unknown origin) at 100 uM relative to control

Row | SMILES | Efficacy (Escherichia coli [1]) | MIC (Escherichia coli [2]) | also measured
1 | Clc1cccc(CCCCCn2ccnc2)c1 | 38% | 0.04 µg/mL (≈ 0.161 µM) | 
2 | CN/C(=N\C#N)NCCCC#Cc1cccc(S(F)(F)(F)(F)F)c1 | 100% | 0.02 µg/mL (≈ 0.0546 µM) | 
3 | CN/C(=N\C#N)NCCCCCc1cccc(Cl)c1 | 57% | 0.032 µg/mL (≈ 0.115 µM) | 
4 | CN/C(=N\C#N)NCCC[C@@H]1C[C@@H]1c1cccc(Cl)c1 | 57% | 0.032 µg/mL (≈ 0.11 µM) | 
5 | CN/C(=N\C#N)NCc1cccc(-c2cccc(Cl)c2)c1 | 38% | 0.04 µg/mL (≈ 0.134 µM) | 
6 | CN/C(=N/C#N)NCc1ccc(-c2cccc(Cl)c2)cc1 | 100% | 0.014 µg/mL (≈ 0.0469 µM) | 
7 | CCn1cc(C(=O)O)c(=O)c2cc(F)c(N3CCNCC3)cc21 [NORFLOXACIN] |  |  | MIC (Escherichia coli [3]): 0.014 µg/mL (≈ 0.0438 µM); MIC (Escherichia coli [4]): 0.056 µg/mL (≈ 0.175 µM); Efficacy (Escherichia coli [5]): 0%; Efficacy (Escherichia coli [6]): 100%
8 | C#Cc1cccc(CCCCCN/C(=N/C#N)NC)c1 | 57% | 0.04 µg/mL (≈ 0.149 µM) | 
9 | CN/C(=N\C#N)NCCCC#Cc1cccc(Cl)c1 | 71% | 0.026 µg/mL (≈ 0.0946 µM) | 
10 | CN(C)/C(=N\C#N)N(C)CCCCCc1cccc(Cl)c1 | 71% | 0.026 µg/mL (≈ 0.0847 µM) | 
11 | CN/C(=N\C#N)NCCCCCc1cccc(Br)c1 | 19% | 0.048 µg/mL (≈ 0.148 µM) | 
12 | CN/C(=N\C#N)NCCCCCc1cccc(I)c1 | 0% | 0.056 µg/mL (≈ 0.151 µM) | 
13 | Clc1cccc(CCCCCN2CCOCC2)c1 | 0% | 0.056 µg/mL (≈ 0.209 µM) | 
14 | CN/C(=N\C#N)NCCCCCc1cccc(NS(C)(=O)=O)c1 | 38% | 0.04 µg/mL (≈ 0.119 µM) | 
15 | CN/C(=N\C#N)NCCC/C=C/c1cccc(Cl)c1 | 71% | 0.026 µg/mL (≈ 0.0939 µM) | 
16 | CN(C)/C(=N\C#N)N(C)Cc1ccc(-c2cccc(Cl)c2)cc1 | 100% | 0.014 µg/mL (≈ 0.0428 µM) | EC50 [7]: 4 µM

Row | SMILES | Efficacy (Escherichia coli [1]) | MIC (Escherichia coli [2]) | also measured
17 | CN(C)/C(=N\C#N)N(C)CCCC#Cc1cccc(S(F)(F)(F)(F)F)c1 | 100% | 0.014 µg/mL (≈ 0.0355 µM) | EC50 [7]: 6.8 µM
18 | CN/C(=N\C#N)NCCC/C=C\c1cccc(Cl)c1 | 71% | 0.026 µg/mL (≈ 0.0939 µM) | 
19 | CN/C(=N\C#N)NCCCCCc1cccc(S(F)(F)(F)(F)F)c1 | 71% | 0.026 µg/mL (≈ 0.0702 µM) | 
20 | CN(C)/C(=N\C#N)N(C)CCCC#Cc1cccc(Cl)c1 | 100% | 0.014 µg/mL (≈ 0.0462 µM) | EC50 [7]: 6.8 µM
21 | CN/C(=N\C#N)NCCCCc1cccc(Cl)c1 | 38% | 0.04 µg/mL (≈ 0.151 µM) | 
22 | CN/C(=N\C#N)NCCCNC(=O)c1cccc(Cl)c1 | 0% | 0.056 µg/mL (≈ 0.191 µM) | 
23 | OCCCCCc1cccc(Cl)c1 | 0% | 0.056 µg/mL (≈ 0.282 µM) | 
24 | CN/C(=N/C#N)NCC#CC#Cc1cccc(Cl)c1 | 0% | 0.056 µg/mL (≈ 0.207 µM) | 
25 | CN/C(=N\C#N)NCCCCCc1cccc(C)c1 | 57% | 0.032 µg/mL (≈ 0.124 µM) | 
26 | CN(C)/C(=N\C#N)N(C)Cc1ccc(-c2cccc(S(F)(F)(F)(F)F)c2)cc1 | 100% | 0.014 µg/mL (≈ 0.0335 µM) | Activity (Escherichia coli [8]): inactive; EC50 [7]: 1.8 µM
27 | CN/C(=N\C#N)NCc1ccccc1-c1cccc(Cl)c1 | 38% | 0.04 µg/mL (≈ 0.134 µM) | 
28 | CN/C(=N\C#N)NCCCCCc1cccc(S(C)(=O)=O)c1 | 38% | 0.04 µg/mL (≈ 0.124 µM) | 
29 | COCCCCCc1cccc(Cl)c1 | 0% | 0.056 µg/mL (≈ 0.263 µM) | 
30 | CN/C(=N\C#N)NCCCCCc1cccc(F)c1 | 38% | 0.04 µg/mL (≈ 0.152 µM) | Efficacy (Bacteria): 92%; EC50 [7]: > 30 µM
31 | CN/C(=N\C#N)NCCC[C@H]1C[C@@H]1c1cccc(Cl)c1 | 57% | 0.032 µg/mL (≈ 0.11 µM) | 
32 | CN/C(=N\C#N)NCCCCCc1cccc(C#N)c1 | 57% | 0.032 µg/mL (≈ 0.119 µM) | 
